Experimental findings from patent US7273865B2, “Thiazolopyridine” (Hoffmann-La Roche Inc., priority 2003, dated 2007) are described below.

The target in assay [1] is T1, human adenosine A1 receptor (Homo sapiens, UniProt P30542).
T1 construct: expressed in transfected cells; host or cells: CHO cells, semliki forest virus expression system; membranes used
T1 sequence (P30542 1-326): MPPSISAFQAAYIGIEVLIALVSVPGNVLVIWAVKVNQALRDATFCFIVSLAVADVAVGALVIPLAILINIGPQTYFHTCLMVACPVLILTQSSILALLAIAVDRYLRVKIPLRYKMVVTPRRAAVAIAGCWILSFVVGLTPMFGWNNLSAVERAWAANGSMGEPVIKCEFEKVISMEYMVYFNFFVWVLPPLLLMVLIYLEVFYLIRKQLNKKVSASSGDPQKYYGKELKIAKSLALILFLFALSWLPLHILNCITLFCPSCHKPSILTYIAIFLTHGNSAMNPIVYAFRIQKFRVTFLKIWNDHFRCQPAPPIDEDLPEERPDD
As to the kind of experiment: Human adenosine A1 receptor [3H]-DPCPX binding assay. The settings on record: recombinant receptor expressed in CHO cells, [3H]-DPCPX 0.6 nM, SPA; read-out: hA1 (converted). The procedure: (§1) The human adenosine A1 receptor was recombinantly expressed in Chinese hamster ovary (CHO) cells using the semliki forest virus expression system. Cells were harvested, washed twice by centrifugation, homogenized and again washed by centrifugation. The [^3H]-DPCPX (([propyl-3H]8-cyclopentyl-1,3-dipropyxanthine); 0.6 nM) binding assay was carried out in 96-well plates in the presence of (per well) approximately 2.5 μg of membrane protein, 0.5 mg of Ysi-poly-1-lysine SPA beads and 0.1 U adenosine deaminase in a final volume of 200 μl of buffer (containing 50 mM Tris, 120 mM NaCl, 5 mM KCl, 2 mM CaCl2 and 10 mM MgCl2 (pH 7.4)). Non-specific binding was defined using xanthine amine congener (XAC; 2 μM). Compounds were tested at 10 concentrations from 10 μM-0.3 nM. All assays were conducted in duplicate and repeated at least two times. Assay plates were incubated for 1 hour at room temperature before centrifugation and then bound ligand determined using a Packard Topcount scintillation counter. IC50 values were calculated using a non-linear curve fitting program and Ki values calculated using the Cheng-Prussoff equation.

Assay [2] has as its target T2, human adenosine A2A receptor (Homo sapiens, UniProt P29274).
T2 construct: expressed in transfected cells; host or cells: CHO cells, semliki forest virus expression system; membranes used
As to the kind of experiment: Human adenosine A2A receptor [3H]-SCH-58261 binding assay. The following applies: for Selectivity: hA2A versus hA1; for Ki: recombinant receptor expressed in CHO cells, [3H]-SCH-58261 1 nM, SPA, read-out: hA2A (converted). The procedure:
as §1, with “A2A” for “A1”, “[^3H]-SCH-58261 (Dionisotti et al., 1997, Br J Pharmacol 121, 353; 1” for “[^3H]-DPCPX (([propyl-3H]8-cyclopentyl-1,3-dipropyxanthine); 0.6”

T2 sequence (P29274 whole entry): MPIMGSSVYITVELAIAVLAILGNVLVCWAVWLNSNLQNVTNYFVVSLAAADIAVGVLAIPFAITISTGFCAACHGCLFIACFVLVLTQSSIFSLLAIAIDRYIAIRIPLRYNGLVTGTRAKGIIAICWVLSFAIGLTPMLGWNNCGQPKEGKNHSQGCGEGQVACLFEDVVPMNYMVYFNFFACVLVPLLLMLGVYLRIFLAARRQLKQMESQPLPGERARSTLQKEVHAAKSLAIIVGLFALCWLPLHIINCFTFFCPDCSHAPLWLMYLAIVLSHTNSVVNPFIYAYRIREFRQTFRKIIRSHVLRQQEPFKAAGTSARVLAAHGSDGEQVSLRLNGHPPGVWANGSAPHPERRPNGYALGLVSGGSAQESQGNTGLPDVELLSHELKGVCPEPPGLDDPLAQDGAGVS

For `COc1cnc(N2CCOCC2)c2sc(NC(=O)c3ccc(F)cc3)nc12` [Example 1, 4-Fluoro-N-(7-methoxy-4-morpholin-4-yl-thiazolo[5,4-c]pyridin-2-yl)-benzamide], the Ki is 1.78 µM in assay [1] and 4.17 nM in assay [2]. For the same molecule, the Selectivity in assay [2] was 420.
For `COc1ccc(C(=O)Nc2nc3c(OC)cnc(N4CCOCC4)c3s2)cc1` [Example 3, 4-Methoxy-N-(7-methoxy-4-morpholin-4-yl-thiazolo[5,4-c]pyridin-2-yl)-benzamide], in that order: 1.91 µM, 5.01 nM and 384.
For `COc1cnc(N2CCOCC2)c2sc(NC(=O)c3ccnc(C)c3)nc12` [Example 4, N-(7-Methoxy-4-morpholin-4-yl-thiazolo[5,4-c]pyridin-2-yl)-2-methyl-isonicotinamide], in that order: 5.75 µM, 11.2 nM and 512.
In the case of `COc1cc(C(=O)Nc2nc3c(OC)cnc(N4CCOCC4)c3s2)ccn1` [Example 5, 2-Methoxy-N-(7-methoxy-4-morpholin-4-yl-thiazolo[5,4-c]pyridin-2-yl)-isonicotinamide], the Ki in assay [1] is 6.31 µM. Moreover, in assay [2], the Selectivity worked out at 489 and the Ki was 12.9 nM.
For `COc1cnc(N2CCOCC2)c2sc(NC(=O)c3cccc(F)c3)nc12` [Example 6, 3-Fluoro-N-(7-methoxy-4-morpholin-4-yl-thiazolo[5,4-c]pyridin-2-yl)-benzamide], in that order: 1.66 µM, 312 and 5.37 nM.
For `COc1cccc(C(=O)Nc2nc3c(OC)cnc(N4CCOCC4)c3s2)c1` [Example 7, 3-Methoxy-N-(7-methoxy-4-morpholin-4-yl-thiazolo[5,4-c]pyridin-2-yl)-benzamide] the same measures were 1.35 µM, 436 and 3.09 nM.
As for `COc1ccc(C(=O)Nc2nc3c(OC)cnc(N4CCOCC4)c3s2)cc1OC` [Example 8, 3,4-Dimethoxy-N-(7-methoxy-4-morpholin-4-yl-thiazolo[5,4-c]pyridin-2-yl)-benzamide], in assay [2], the Selectivity worked out at 535 and the Ki is 13.8 nM.
Turning to `COc1cnc(N2CCOCC2)c2sc(NC(=O)c3ccc4c(c3)OCO4)nc12` [Example 9, Benzo [1,3]dioxole-5-carboxylic acid (7-methoxy-4-morpholin-4-yl-thiazolo[5,4-c]pyridin-2-yl)-amide], the Ki in assay [1] was 3.8 µM. Also, in assay [2], the Selectivity worked out at 527 and the Ki was 7.24 nM.
For the molecule `COc1cnc(N2CCOCC2)c2sc(NC(=O)CC3CCOCC3)nc12` [Example 11, N-(7-Methoxy-4-morpholin-4-yl-thiazolo[5,4-c]pyridin-2-yl)-2-(tetrahydro-pyran-4-yl)-acetamide], the Ki in assay [1] was 5.01 µM. In addition, in assay [2], the Selectivity came to 310 and the Ki is 16.2 nM.
For `COc1cnc(N2CCOCC2)c2sc(NC(=O)c3ccncc3)nc12` [Example 17, N-(7-Methoxy-4-morpholin-4-yl-thiazolo[5,4-c]pyridin-2-yl)-isonicotinamide] the same measures were 5.62 µM, 258 and 21.9 nM.
`COc1cnc(N2CCOCC2)c2sc(NC(=O)c3ccnc(N4CC(O)C4)c3)nc12` [Example 18, 2-(3-Hydroxy-azetidin-1-yl)-N-(7-methoxy-4-morpholin-4-yl-thiazolo[5,4-c]pyridin-2-yl)-isonicotinamide]: in assay [2], the Selectivity is recorded as 868 and the Ki was 7.94 nM.
With `COc1cnc(N2CCOCC2)c2sc(NC(=O)c3ccnc(N4CC(OC)C4)c3)nc12` [Example 19, 2-(3-Methoxy-azetidin-1-yl)-N-(7-methoxy-4-morpholin-4-yl-thiazolo[5,4-c]pyridin-2-yl)-isonicotinamide], the Ki in assay [1] is 1.91 µM. In assay [2], the Selectivity is listed as 347 and the Ki is 5.5 nM.
For the molecule `COc1ccc(C(=O)Nc2nc3c(OC)cnc(N4CCOCC4)c3s2)cn1` [Example 21, 6-Methoxy-N-(7-methoxy-4-morpholin-4-yl-thiazolo[5,4-c]pyridin-2-yl)-nicotinamide], in assay [2], the Selectivity worked out at 519 and the Ki is 14.1 nM.
Regarding `COc1cnc(N2CCOCC2)c2sc(NC(=O)c3ccnc(N4CCOCC4)c3)nc12` [Example 22, N-(7-Methoxy-4-morpholin-4-yl-thiazolo[5,4-c]pyridin-2-yl)-2-morpholin-4-yl-isonicotinamide], the Ki was 6.46 µM in assay [1] and 3.89 nM in assay [2]. In addition, in assay [2], the Selectivity came to 1647.
For `COc1cnc(N2CCOCC2)c2sc(NC(=O)c3ccc(N4CCOCC4)cc3)nc12` [Example 29, N-(7-Methoxy-4-morpholin-4-yl-thiazolo[5,4-c]pyridin-2-yl)-4-morpholin-4-yl-benzamide], in assay [2], the Selectivity is listed as 572 and the Ki was 12.6 nM.
Turning to `COc1cnc(N2CCOCC2)c2sc(NC(=O)c3cccc(N4CCOCC4)c3)nc12` [Example 30, N-(7-Methoxy-4-morpholin-4-yl-thiazolo[5,4-c]pyridin-2-yl)-3-morpholin-4-yl-benzamide], in assay [1], the Ki was 7.08 µM. Besides, in assay [2], the Selectivity is listed as 1716 and the Ki was 4.07 nM.
For the molecule `COCCN(C)Cc1ccc(C(=O)Nc2nc3c(OC)cnc(N4CCOCC4)c3s2)cc1` [Example 31, 4-{[(2-Methoxy-ethyl)-methyl-amino]-methyl}-N-(7-methoxy-4-morpholin-4-yl-thiazolo[5,4-c]pyridin-2-yl)-benzamide], the Ki in assay [1] was 6.03 µM. In assay [2], the Selectivity was determined as 441 and the Ki is 13.8 nM.
For the molecule `COc1cnc(N2CCOCC2)c2sc(NC(=O)c3ccnc(CN4CCOCC4)c3)nc12` [Example 33, N-(7-Methoxy-4-morpholin-4-yl-thiazolo[5,4-c]pyridin-2-yl)-2-morpholin-4-ylmethyl-isonicotinamide], in assay [2], the Selectivity is recorded as 291 and the Ki was 25.1 nM.
Consider `COc1cnc(N2CCOCC2)c2sc(NC(=O)N3CCC(CO)CC3)nc12` [Example 36, 4-Hydroxymethyl-piperidine-1-carboxylic acid (7-methoxy-4-morpholin-4-yl-thiazolo[5,4-c]pyridin-2-yl)-amide], for which the Ki in assay [1] was 3.16 µM; in assay [2] it was 6.76 nM. For the same molecule, the Selectivity in assay [2] was determined as 468.
As for `COc1cnc(N2CCOCC2)c2sc(NC(=O)N3CCC4(CCN(C)C4=O)CC3)nc12` [Example 37, 2-Methyl-1-oxo-2,8-diaza-spiro [4.5] decane-8-carboxylic acid (7-methoxy-4-morpholin-4-yl-thiazolo[5,4-c]pyridin-2-yl)-amide], in assay [2], the Selectivity is recorded as 346 and the Ki was 20.9 nM.
For `COc1cnc(N2CCOCC2)c2sc(NC(=O)c3ccc(CN4CCOCC4)cc3)nc12` [Example 39, N-(7-Methoxy-4-morpholin-4-yl-thiazolo[5,4-c]pyridin-2-yl)-4-morpholin-4-ylmethyl-benzamide], in that order: 446 and 16.2 nM.
With `COc1cnc(N2CCOCC2)c2sc(NC(=O)N3CCC4(CCCO4)CC3)nc12` [Example 40, 1-Oxa-8-aza-spiro[4.5]decane-8-carboxylic acid (7-methoxy-4-morpholin-4-yl-thiazolo[5,4-c]pyridin-2-yl)-amide], the Ki in assay [1] is 5.89 µM. Besides, in assay [2], the Selectivity was determined as 387 and the Ki was 15.5 nM.
For `COc1cnc(N2CCOCC2)c2sc(NC(=O)N3CCC(C)(CO)CC3)nc12` [Example 43, 4-Hydroxymethyl-4-methyl-piperidine-1-carboxylic acid (7-methoxy-4-morpholin-4-yl-thiazolo[5,4-c]pyridin-2-yl)-amide] the same measures were 7.08 µM, 593 and 11.7 nM.
